Measured values from patent US20200009248A1, “TARGETING TGR5 TO TREAT DISEASE” (Mayo Foundation for Medical Education and Research, priority 2014, published 2020).
Entries after “also recorded” stand apart in the source; their conditions may differ.

Columns and labels:
[1] = system: control and cystic cholangiocytes; test: cAMP production (Bridge-It cAMP assay) in cholangiocytes treated with TGR5 agonists; type: cell-based, rat, human; details: 25 μM, 30 minutes; for cAMP production: ciliated cystic cholangiocytes (PCK rat, human ADPKD)
Protocol: Production of cAMP was detected using a Bridge-It cAMP designer cAMP assay (Mediomics, St. Lou is, MO) according to manufacturer's protocol. […] Forskolin (10^−6M for 15 min) served as a control.

[2] = system: cystic bile ducts from PCK rats; test: Three-dimensional culture of cystic bile ducts, cyst growth; type: cell-based, rat; details: 25 μm daily, day 3 vs day 1, compared to untreated
Protocol: (§1) Cultured cholangiocytes and cystic bile ducts freshly isolated by microdissection from PCK rats were grown in three-dimensional matrices as described elsewhere (Masyuk et al., Am J Pathol 2014, 184:110-121; and Masyuk et al., Am J Pathol 2004, 165:1719-1730) and treated with TLCA and OA (both, […]) daily. Images were taken at days 1 (i.e., 24 hours after seeding) and 3. The circumferential area of each cyst was measured using ImageJ software (National Institutes of Health, Bethesda, Md.) as described elsewhere (Masyuk et al., Am J Pathol 2014, 184:110-121). Data were expressed as percent change at day 3 compared to day 1.

ADPKD cholangiocytes = test: Three-dimensional culture of cystic cholangiocytes, cyst growth; type: cell-based, human; details: ADPKD cholangiocytes with TGR5 depleted by shRNA
Description: Control and cystic rat cholangiocytes (derived from wild type and PCK rats, respectively), and control and cystic human cholangiocytes (derived from healthy humans and ADPKD patients, respectively) were used. Cells were isolated and maintained as described elsewhere (Masyuk et al., Hepatol 2013, 58:409-421). […] C1 and C2 were synthesized in the Sanford-Burnham Medical Research Institute at >95% purity by HPLC following a procedure outlined elsewhere (Piotrowski et al., ACS Med Chem Lett 2013, 4:63-68; and Evans et al., J Med Chem 2009, 52:7962-7965). PCK and ADPKD cholangiocytes were stably transfected with TGR5 shRNAs or control shRNAs (Santa Cruz Biotechnology, Santa Cruz, Calif.). Rodents were maintained on a standard diet and water ad lib. […]
as §1, with “Images were taken at days 1 (i.e., 24 hours after seeding) and 3.” left out

PCK rats = test: Hepato-renal cystogenesis in PCK rats treated with OA for 6 weeks; type: in vivo; details: 25 mg/kg bw intraperitoneally daily; for hepato-renal cystogenesis: 25 mg/kg
Description: (§2) Control PCK rats (n=8) received equal doses of DMSO. Drug concentrations were adjusted to the animal weight weekly. After 6 weeks of treatment, rats were sacrificed and body and organ weights assessed. […] Hepatic and renal cystic and fibrotic areas were expressed as a percentage of total hepatic or renal parenchyma, respectively.

Gαi and Gαs proteins = test: Western blot of Gαi and Gαs proteins in control and cystic cholangiocytes with or without OA; type: cell-based
Protocol: Western blotting. Briefly, proteins were separated by 4-15% SDSPAGE, transferred to nitrocellulose membranes (Bio-Rad, Hercules, Calif.), and incubated overnight at 4° C. with antibodies against TGR5 (Santa Cruz Biotechnology), Gas (Abcam, Cambridge, Mass.), and Gαi (Cell Signaling Technology, Danvers, Mass.). Actin antibody was used to assure equal protein loading. Membranes were washed and incubated for 1 hour at room temperature with the corresponding horseradish peroxidase-conjugated (Invitrogen) or IRDYE® 680 or 800 (Odyssey) secondary antibodies. Bands were visualized with the ECL Plus Western Blotting Detection kit (BD Biosciences, San Jose, Calif.) or Odyssey Li-Cor Scanner (Li-Cor, Lincoln, Nebr.).

[3] = system: Gαi and Gαs proteins, TGR5; details: PCK rats in vivo, immunofluorescence
Description: as §2

[4] = ciliated control cholangiocytes (rat, human)
[5] = non-ciliated control and cystic cholangiocytes (rat, human)

CCNc1nc2c(c(C(N)=O)n1)CN(C(=O)CCc1ccc(OC(F)(F)F)cc1)CC2 [C1, 2-(ethylamino)-6-(3-(4-(trifluoromethoxy)phenyl)propanoyl)-5,6,7,8-tetrahydropyrido[4,3-d]pyrimidine-4-carbox-amide]
cAMP levels [1, 4]: decreased cAMP levels
cAMP production [1]: increasing cAMP production
cAMP levels [1, 5]: elevated cAMP

Cc1onc(-c2ccccc2Cl)c1C(=O)N(C)c1ccc(Cl)cc1 [C2, 3-(2-chlorophenyl)-N-(4-chlorophenyl)-N,5-dimethylisoxazole-4-carboxamide]
cAMP levels [1, 4]: decreased cAMP levels
cAMP production [1]: increasing cAMP production
cAMP levels [1, 5]: elevated cAMP

CC1(C)CC[C@]2(C(=O)O)CC[C@]3(C)C(=CC[C@@H]4[C@@]5(C)CC[C@H](O)C(C)(C)[C@@H]5CC[C@]43C)[C@@H]2C1 [OA, oleanolic acid]
cAMP levels [1, 4]: decreased cAMP levels
cAMP production [1]: increasing cAMP production
cAMP levels [1, 5]: elevated cAMP
growth of cystic structures (cyst expansion) in 3-D culture [2]: accelerated cyst expansion
growth of cystic structures in 3-D culture after TGR5 depletion (ADPKD cholangiocytes): abolished the effects
mortality or toxicity (e.g., hair or weight loss) (PCK rats): no mortality or toxicity
tolerability (PCK rats): well tolerated
increase of hepatic cystic areas (PCK rats; compared to control PCK rats): 31%
increase of hepatic fibrotic areas (PCK rats; compared to control PCK rats): 20%
increase of kidney weights (PCK rats; compared to control PCK rats): 11%
increase of liver weights (PCK rats; compared to control PCK rats): 12%
increase of renal cystic areas (PCK rats; compared to control PCK rats): 19%
increase of renal fibrotic areas (PCK rats; compared to control PCK rats): 30%
hepato-renal cystogenesis (PCK rats; listed as Oleanolic Acid): Increases
hepato-renal cystogenesis (PCK rats; listed as oleanolic acid): increases
expression of Gαi and Gαs proteins (Gαi and Gαs proteins): no effects; also recorded: did not affect
expression of Gα proteins [3]: does not affect
